Key:
[1] = molecular target: PHD2 enzyme (residues 181-417) (Homo sapiens (Human), UniProt Q9GZT9); test: Inhibition of PHD enzyme (LC/MS peptide hydroxylation assay); format: biochemical; conditions: PHD2 (residues 181-417) 5 nM, 60 min pre-incubation; -log(IC50), IC50 molar
Outline: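 Hydroxylated peptide quantified by LC/MS after 60 min turnover of 1 uM biotinylated peptide with 2 uM 2-oxoglutarate and 1 mM ascorbate, stopped by excess tight-binding inhibitor. Beforehand, 5 nM enzyme and compound were preincubated 60 min at RT, pH 7.3 HEPES/KCl/TCEP/FeCl2/BSA buffer. Values as pIC50 (−log molar IC50).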

[2] = test system: HIF1a protein in H9c2 rat cardiomyocytes; test: Cell-based HIF-alpha stabilization assay (inhibition of PHD in cells); conditions: 24 hrs compound incubation, HIF1a protein by ELISA; for EC50: Rattus norvegicus, H9c2, 24 h, read-out: Inhibition of PHD in cells (pEC50) (converted)
Outline: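 HIF1a stabilization was measured by ELISA on lysates of H9c2 rat cardiomyocytes after 24 h exposure to 11 serial compound concentrations, expressed relative to the desferrioxamine maximum. Curve fits gave EC50. EC50pos denotes the concentration producing half the desferrioxamine maximal response.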

PHD2 enzyme (residues 181-417), sequence (Q9GZT9 181-417): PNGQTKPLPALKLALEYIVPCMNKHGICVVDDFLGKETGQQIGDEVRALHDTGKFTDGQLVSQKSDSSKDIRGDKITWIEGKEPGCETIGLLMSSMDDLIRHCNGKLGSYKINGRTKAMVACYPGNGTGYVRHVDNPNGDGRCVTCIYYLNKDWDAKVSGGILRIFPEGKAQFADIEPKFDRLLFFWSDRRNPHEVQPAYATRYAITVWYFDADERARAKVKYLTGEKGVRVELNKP

Structure (SMILES) | PHD Inhibition (pIC50) [1] | EC50 [2] [nM] | Inhibition of PHD in cells (pEC50) [2]
Cc1cc(C#N)ccc1-c1cnn(-c2ccc(C(=O)NC3CCOCC3)cn2)c1O [Example 59, 6-(4-(4-cyano-2-methylphenyl)-5-hydroxy-1H-pyrazol-1-yl)-N-(tetrahydro-2H-pyran-4-yl)nicotinamide] | 7.33 | 70.8 | –
Cc1cc(-n2ncc(-c3ccc(C#N)cc3)c2O)ncc1C(=O)N(C)C1CCN(C)CC1 [Example 431, 6-(4-(4-cyanophenyl)-5-hydroxy-1H-pyrazol-1-yl)-N,4-dimethyl-N-(1-methylpiperidin-4-yl)nicotinamide] | 7.31 | 2750 | –
CNC(=O)c1ccc(-n2ncc(-c3ccc(C#N)cc3C)c2O)nc1 [Example 107, 6-(4-(4-cyano-2-methylphenyl)-5-hydroxy-1H-pyrazol-1-yl)-N-methylnicotinamide] | 8.4 | 129 | –
COCCCNC(=O)c1ccc(-n2ncc(-c3ccc(C#N)cc3)c2O)nc1 [Example 148, 6-(4-(4-cyanophenyl)-5-hydroxy-1H-pyrazol-1-yl)-N-(3-methoxypropyl)nicotinamide] | 7.57 | 631 | –
Cc1cc(C#N)ccc1-c1cnn(-c2ccc(C(=O)N3CCN(C(C)C)[C@H](C)C3)cn2)c1O [Example 379, (R)-4-(5-hydroxy-1-(5-(4-isopropyl-3-methylpiperazine-1-carbonyl)pyridin-2-yl)-1H-pyrazol-4-yl)-3-methylbenzonitrile] | 8.20 | 794 | –
Cc1cc(C#N)ccc1-c1cnn(-c2ccc(C(=O)NCCCn3ccnc3)cn2)c1O [Example 106, N-(3-(1H-imidazol-1-yl)propyl)-6-(4-(4-cyano-2-methylphenyl)-5-hydroxy-1H-pyrazol-1-yl)nicotinamide] | 8 | 355 | –
Cc1cc(C#N)ccc1-c1cnn(-c2ccc(C(=O)NCCCN3CCOCC3)cn2)c1O [Example 104, 6-(4-(4-cyano-2-methylphenyl)-5-hydroxy-1H-pyrazol-1-yl)-N-(3-morpholinopropyl)nicotinamide] | 8.2 | 95.5 | –
CO[C@H]1CC[C@H](NC(=O)c2ccc(-n3ncc(-c4ccc(C#N)cc4)c3O)nc2)CC1 [Example 228, 6-(4-(4-cyanophenyl)-5-hydroxy-1H-pyrazol-1-yl)-N-((1r,4r)-4-methoxycyclohexyl)nicotinamide] | 7.48 | – | 6.59
COCC(C)(C)NC(=O)c1ccc(-n2ncc(-c3ccnc(OC)c3)c2O)nc1 [Example 17, 6-(5-hydroxy-4-(2-methoxypyridin-4-yl)-1H-pyrazol-1-yl)-N-(1-methoxy-2-methylpropan-2-yl)nicotinamide] | 7.03 | 347 | –
COCCC1(NC(=O)c2ccc(-n3ncc(-c4ccc(C#N)cc4C)c3O)nc2)CC1 [Example 215, 6-(4-(4-cyano-2-methylphenyl)-5-hydroxy-1H-pyrazol-1-yl)-N-(1-(2-methoxyethyl)cyclopropyl)nicotinamide] | 7.21 | 257 | –
Cc1cc(C#N)ccc1-c1cnn(-c2ccc(C(=O)N3CCN(C)C[C@H]3C)cn2)c1O [Example 385, (R)-4-(1-(5-(2,4-dimethylpiperazine-1-carbonyl)pyridin-2-yl)-5-hydroxy-1H-pyrazol-4-yl)-3-methylbenzonitrile] | 8.18 | 955 | –
Cc1cc(C#N)ccc1-c1cnn(-c2ccc(C(=O)NCCC3CCCN3C)cn2)c1O (centres unmarked) [Example 102, 6-(4-(4-cyano-2-methylphenyl)-5-hydroxy-1H-pyrazol-1-yl)-N-(2-(1-methylpyrrolidin-2-yl)ethyl)nicotinamide] | 7.9 | 58.9 | –
Cc1cc(C#N)ccc1-c1cnn(-c2ccc(C(=O)N(C)CCCN(C)C)cn2)c1O [Example 313, 6-(4-(4-cyano-2-methylphenyl)-5-hydroxy-1H-pyrazol-1-yl)-N-(3-(dimethylamino)propyl)-N-methylnicotinamide] | 7.59 | 1120 | –
COc1cc(-c2cnn(-c3ccc(C(=O)NCC4CCCCO4)cn3)c2O)ccn1 (centres unmarked) [Example 48, 6-(5-hydroxy-4-(2-methoxypyridin-4-yl)-1H-pyrazol-1-yl)-N-((tetrahydro-2H-pyran-2-yl)methyl)nicotinamide] | 8 | 646 | –
CC1CC1NC(=O)c1ccc(-n2ncc(-c3ccc(C#N)cc3)c2O)nc1 (centres unmarked) [Example 262, 6-(4-(4-cyanophenyl)-5-hydroxy-1H-pyrazol-1-yl)-N-(2-methylcyclopropyl)nicotinamide] | 7.38 | 525 | –
N#Cc1ccc(-c2cnn(-c3ccc(C(=O)NCc4ccccc4)cn3)c2O)cc1F [Example 188, N-benzyl-6-(4-(4-cyano-3-fluorophenyl)-5-hydroxy-1H-pyrazol-1-yl)nicotinamide] | 7.3 | 5250 | –
COc1cc(-c2cnn(-c3ccc(C(=O)NC4CCN(C5CC5)CC4)cn3)c2O)ccn1 [Example 41, N-(1-cyclopropylpiperidin-4-yl)-6-(5-hydroxy-4-(2-methoxypyridin-4-yl)-1H-pyrazol-1-yl)nicotinamide] | 8 | 550 | –
CCN1CCN(C(=O)c2ccc(-n3ncc(-c4ccc(C#N)c(F)c4C)c3O)nc2)C[C@H]1C [Example 338, (R)-4-(1-(5-(4-ethyl-3-methylpiperazine-1-carbonyl)pyridin-2-yl)-5-hydroxy-1H-pyrazol-4-yl)-2-fluoro-3-methylbenzonitrile] | 8.40 | 933 | –
CCNC(=O)c1ccc(-n2ncc(-c3ccc(C#N)cc3C)c2O)nc1 [Example 108] | 8.3 | 110 | –
Cc1cc(-n2ncc(-c3ccc(C#N)cc3)c2O)ncc1C(=O)NC1CC1 [Example 275, 6-(4-(4-cyanophenyl)-5-hydroxy-1H-pyrazol-1-yl)-N-cyclopropyl-4-methylnicotinamide] | 7.03 | 3800 | –
Cc1cc(C#N)ccc1-c1cnn(-c2ccc(C(=O)N3CCN(C)C(C)(C)C3)cn2)c1O [Example 377, 4-(5-hydroxy-1-(5-(3,3,4-trimethylpiperazine-1-carbonyl)pyridin-2-yl)-1H-pyrazol-4-yl)-3-methylbenzonitrile] | 8.44 | 813 | –
Cc1c(-c2cnn(-c3ccc(C(=O)N4CC[C@H](N(C)C)C4)cn3)c2O)ccc(C#N)c1F [Example 318, (S)-4-(1-(5-(3-(dimethylamino)pyrrolidine-1-carbonyl)pyridin-2-yl)-5-hydroxy-1H-pyrazol-4-yl)-2-fluoro-3-methylbenzonitrile] | 8.35 | 708 | –
N#Cc1ccc(-c2cnn(-c3ccc(C(=O)N[C@H]4CC[C@H](O)C4)cn3)c2O)cc1 [Example 259, 6-(4-(4-cyanophenyl)-5-hydroxy-1H-pyrazol-1-yl)-N-((1s,3s)-3-hydroxycyclopentyl)nicotinamide] | 7.39 | 1000 | –
CC(C)OCCNC(=O)c1ccc(-n2ncc(-c3ccc(C#N)cc3)c2O)nc1 [Example 89, 6-(4-(4-cyanophenyl)-5-hydroxy-1H-pyrazol-1-yl)-N-(2-isopropoxyethyl)nicotinamide] | 7.24 | 708 | –
CCN1CCN(C(=O)c2ccc(-n3ncc(-c4cc(F)c(C#N)cc4C)c3O)nc2)C[C@@H]1C [Example 397, (S)-4-(1-(5-(4-ethyl-3-methylpiperazine-1-carbonyl)pyridin-2-yl)-5-hydroxy-1H-pyrazol-4-yl)-2-fluoro-5-methylbenzonitrile] | 8.52 | 1620 | –
N#Cc1ccc(-c2cnn(-c3ccc(C(=O)NCc4ccccc4)cn3)c2O)cc1 [Example 281, N-benzyl-6-(4-(4-cyanophenyl)-5-hydroxy-1H-pyrazol-1-yl)nicotinamide] | 7.37 | 257 | –
COCCCNC(=O)c1ccc(-n2ncc(-c3ccc(C#N)c(OC)c3C)c2O)nc1 [Example 411, 6-(4-(4-cyano-3-methoxy-2-methylphenyl)-5-hydroxy-1H-pyrazol-1-yl)-N-(3-methoxypropyl)nicotinamide] | 8.20 | 676 | –
COCCCN(C)C(=O)c1ccc(-n2ncc(-c3ccc(C#N)c(F)c3C)c2O)nc1 [Example 326, 6-(4-(4-cyano-3-fluoro-2-methylphenyl)-5-hydroxy-1H-pyrazol-1-yl)-N-(3-methoxypropyl)-N-methylnicotinamide] | 8.33 | 490 | –

From patent US10407409B2, “6-(5-hydroxy-1H-pyrazol-1-yl)nicotinamide inhibitors of PHD” (Takeda Pharmaceutical Company Limited, priority 2013, dated 2019)
